Measured values reported in PubChem BioAssay (NCI).
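Growth conditions: 96-well plates. Treatment: test compound, 48 hours, 5 concentrations. Analysis: linear interpolation between bracketing concentrations; unreached endpoints set to highest concentration. At the TGI there is no net growth.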

Columns and labels:
Assay in all cases: growth of human tumour cells (NCI), 48 h
786-0 renal = system: 786-0 renal
A498 renal = system: A498 renal
A549 NSCLC = system: A549 NSCLC
ACHN renal = system: ACHN renal
BT-549 breast = system: BT-549 breast
CAKI-1 renal = system: CAKI-1 renal
CCRF-CEM leukemia = system: CCRF-CEM leukemia
COLO 205 colon = system: COLO 205 colon
DU-145 prostate = system: DU-145 prostate
EKVX NSCLC = system: EKVX NSCLC
HCC-2998 colon = system: HCC-2998 colon
HCT-116 colon = system: HCT-116 colon
HCT-15 colon = system: HCT-15 colon
HL-60(TB) leukemia = system: HL-60(TB) leukemia
HOP-62 NSCLC = system: HOP-62 NSCLC
HOP-92 NSCLC = system: HOP-92 NSCLC
HS 578T breast = system: HS 578T breast
HT29 colon = system: HT29 colon
IGROV1 ovarian = system: IGROV1 ovarian
K-562 leukemia = system: K-562 leukemia
KM12 colon = system: KM12 colon
LOX IMVI melanoma = system: LOX IMVI melanoma
M14 melanoma = system: M14 melanoma
MALME-3M melanoma = system: MALME-3M melanoma
MDA-MB-231 breast = system: MDA-MB-231 breast
MDA-MB-435 = system: MDA-MB-435
MOLT-4 leukemia = system: MOLT-4 leukemia
NCI-H226 lung = system: NCI-H226 lung
NCI-H23 lung = system: NCI-H23 lung
NCI-H460 lung = system: NCI-H460 lung
NCI-H522 lung = system: NCI-H522 lung
NCI/ADR-RES ovarian = system: NCI/ADR-RES ovarian
OVCAR-3 ovarian = system: OVCAR-3 ovarian
OVCAR-4 ovarian = system: OVCAR-4 ovarian
OVCAR-5 ovarian = system: OVCAR-5 ovarian
OVCAR-8 ovarian = system: OVCAR-8 ovarian
PC-3 prostate = system: PC-3 prostate
RPMI-8226 leukemia = system: RPMI-8226 leukemia
RXF 393 renal = system: RXF 393 renal
SF-268 CNS = system: SF-268 CNS
SF-295 CNS = system: SF-295 CNS
SK-MEL-2 melanoma = system: SK-MEL-2 melanoma
SK-MEL-28 melanoma = system: SK-MEL-28 melanoma
SK-MEL-5 melanoma = system: SK-MEL-5 melanoma
SK-OV-3 ovarian = system: SK-OV-3 ovarian
SNB-19 CNS = system: SNB-19 CNS
SNB-75 CNS = system: SNB-75 CNS
SR leukemia = system: SR leukemia
SW-620 colon = system: SW-620 colon
T-47D breast = system: T-47D breast
TK-10 renal = system: TK-10 renal
U251 CNS = system: U251 CNS
UACC-257 melanoma = system: UACC-257 melanoma
UACC-62 melanoma = system: UACC-62 melanoma
UO-31 renal = system: UO-31 renal

Measured: TGI

CN1CCN(c2ccc3c(c2)NCC(=O)N3)CC1
> 100 µM: all assays above
